One test relates to Protease M. As to the kind of experiment: Relative activity on nitrophenyl-sugar substrates: Protease M. It counts as biochemical, Aspergillus oryzae. The settings on record: 100 units arbitrarily chosen for the substrate on which Protease M exhibited the most activity. How it is done: (§1) The relative activity of Protease M and β-glycosidase on different sugar substrates was assessed. A panel of substrates comprising a nitrophenyl group conjugated to different sugars was used in the study.

For a further test, the system named is β-glycosidase. As to the kind of experiment: Relative activity on nitrophenyl-sugar substrates: β-glycosidase. It counts as biochemical, Penicillium multicolor. The settings on record: 100 units arbitrarily chosen for the substrate on which β-glycosidase exhibited the most activity. The procedure:
as §1

For the compound `O=[N+]([O-])c1ccc(O[C@H]2O[C@H](CO)[C@H](O)[C@H](O)[C@H]2O)cc1` [4-Nitrophenyl α-D-galactopyranoside], the “relative activity of Protease M for the substrate” value (“relative activity of Protease M” for short) in the test on Protease M was found to be 6 activity units. For the same compound, the “relative activity of β-glycosidase for the substrate” value (from here on “relative activity of β-glycosidase”) in the test on β-glycosidase worked out at 100 activity units.

On to `O=[N+]([O-])c1ccc(O[C@H]2O[C@H](CO)[C@@H](O)[C@H](O)[C@H]2O)cc1` [4-Nitrophenyl α-D-glucopyranoside], for which the “relative activity of Protease M” value with Protease M came to 42 activity units. In addition, the “relative activity of β-glycosidase” value in the test on β-glycosidase was determined as 19 activity units.

For the compound `O=[N+]([O-])c1ccc(O[C@H]2O[C@H](CO)[C@@H](O)[C@H](O)[C@@H]2O)cc1` [4-Nitrophenyl α-D-mannopyranoside], the “relative activity of Protease M” value with Protease M amounted to 4 activity units. Moreover, the “relative activity of β-glycosidase” value in the test with β-glycosidase worked out at 19 activity units.

As for `O=[N+]([O-])c1ccc(O[C@@H]2OC[C@H](O)[C@H](O)[C@H]2O)cc1` [4-Nitrophenyl α-L-arabinopyranoside], the “relative activity of Protease M” value with Protease M came out at 29 activity units. In addition, in the test with β-glycosidase, the “relative activity of β-glycosidase” value is 60 activity units.

With `O=[N+]([O-])c1ccc(O[C@@H]2O[C@H](CO)[C@@H](O[C@@H]3O[C@H](CO)[C@@H](O)[C@H](O)[C@H]3O)[C@H](O)[C@H]2O)cc1` [4-Nitrophenyl β-D-cellobioside], in the test with Protease M, the “relative activity of Protease M” value is reported as 68 activity units. The “relative activity of β-glycosidase” value with β-glycosidase is 55 activity units.

For the compound `O=[N+]([O-])c1ccc(O[C@@H]2O[C@H](CO)[C@H](O)[C@H](O)[C@H]2O)cc1` [4-Nitrophenyl β-D-galactopyranoside], the “relative activity of Protease M” value in the test with Protease M was found to be 100 activity units. The “relative activity of β-glycosidase” value in the test on β-glycosidase was determined as 85 activity units.

Regarding `O=C(O)[C@H]1O[C@@H](Oc2ccc([N+](=O)[O-])cc2)[C@H](O)[C@@H](O)[C@@H]1O` [4-Nitrophenyl β-D-glucuronide], the “relative activity of Protease M” value with Protease M stood at 4 activity units. Moreover, in the test on β-glycosidase, the “relative activity of β-glycosidase” value was 12 activity units.

`O=[N+]([O-])c1ccc(O[C@@H]2O[C@H](CO)[C@@H](O[C@H]3O[C@H](CO)[C@@H](O)[C@H](O)[C@H]3O)[C@H](O)[C@H]2O)cc1` [4-Nitrophenyl β-D-maltoside]: the “relative activity of Protease M” value with Protease M is given as 63 activity units. For the same compound, the “relative activity of β-glycosidase” value in the test with β-glycosidase came out at 57 activity units.

In the case of `O=[N+]([O-])c1ccc(O[C@@H]2O[C@H](CO)[C@@H](O)[C@H](O)[C@@H]2O)cc1` [4-Nitrophenyl β-D-mannopyranoside], the “relative activity of Protease M” value in the test on Protease M was 10 activity units. Besides, the “relative activity of β-glycosidase” value in the test on β-glycosidase turned out to be 12 activity units.

The values are drawn from patent publication US20070020744A1, “Enzyme compositions that enhance the flavor of food and beverages” (Amano Enzyme USA Co., Ltd, priority 2005, published 2007).
